Experimental data taken from paper doi:10.1101/466938v1, “The distinct biochemical property enables thymidylate kinase as a drug target and participates in pyrimidine drug sensitivity in Candida albicans” (biorxiv, 2018).
Values after ≈ are worked out from the molar mass of the structure shown. Read-outs that look alike come from different tables or passages of the source.

Experiments:
Test in all cases: microbe, parasite or virus in culture
Design in all cases: species or system Candida albicans strains; Sensititre YeastOne SYO-09 colorimetric microdilution, visual MIC at >=50% growth inhibition
[1] = test system: T1, Candida albicans ATCC90028; conditions: ATCC90028, 24 h
T1 construct: ATCC 90028
Protocol: (§1) Minimum inhibitory concentrations (MICs) of 5-FUrd were determined by broth microdilution method in accordance with the guidelines in Clinical and Laboratory Standards Institute (CLSI) document M27[25], using RPMI 1640 medium containing 0.165 M MOPs (pH 7.0) and 0.2% glucose, an inoculum of 10^3 cells/well, and incubated for 24 hr at 35°C, followed by OD600 reading by TECAN SPARK plate reader. The MIC50 of 5-FUrd was determined as the lowest dosage of 5-FUrd causing 50% inhibition of the growth by using the concentrations in the range of 0.004-2μg/mL. MICs of […] of human use (5-FC; four azoles: posaconazole, voriconazole, itraconazole, fluconazole; and three echinocandins: anidulafungin, caspofungin and micafungin) were determined by the microdilution colorimetric Sensititre YeastOne SYO-09 panel (TREK Diagnostic Systems, Cleveland, OH, USA); in accordance with the manufacturer’s instructions. MICs values were determined visually, after 24 hours of incubation, as the lowest concentration of drug that caused complete inhibition (amphotericin B) or a significant diminution (≥50% inhibition; flucytosine, azoles and echinocandins) of growth relative to that of the growth control. Table 2. Minimum inhibitory concentrations of 5-FUrd and antifungal drugs of clinical used for pathogenic and drug-resistant isolates of Candida albicans^a

[2] = test system: T2, Candida albicans F2014a093; conditions: F2014A093, 24 h
T2 construct: F2014a093
Protocol: as §1

[3] = test system: T3, Candida albicans F2014f090; conditions: F2014F090, 24 h
T3 construct: F2014f090
Protocol: as §1

[4] = test system: T4, Candida albicans F2015b076; conditions: F2015B076, 24 h
T4 construct: F2015b076
Protocol: as §1

[5] = test system: T5, Candida albicans F2015f019; conditions: F2015F019, 24 h
T5 construct: F2015f019
Protocol: as §1

[6] = test system: T6, Candida albicans F2016a067; conditions: F2016A067, 24 h
T6 construct: F2016a067
Protocol: as §1

[7] = test system: T7, Candida albicans F2016c087; conditions: F2016C087, 24 h
T7 construct: F2016c087
Protocol: as §1

[8] = test system: T8, Candida albicans F2016e085; conditions: F2016E085, 24 h
T8 construct: F2016e085
Protocol: as §1

[9] = test system: T9, Candida albicans F2016f024; conditions: F2016F024, 24 h
T9 construct: F2016f024
Protocol: as §1

[10] = test system: T10, Candida albicans F2016g048; conditions: F2016G048, 24 h
T10 construct: F2016g048
Protocol: as §1

[11] = test system: T11, Candida albicans F2017g023; conditions: F2017G023, 24 h
T11 construct: F2017g023
Protocol: as §1

[12] = test system: T12, Candida albicans SC5314; conditions: SC5314, 24 h
T12 construct: SC5314
Protocol: as §1

[13] = read-out: Voriconazole MIC (µg/mL)
[14] = read-out: Fluconazole MIC (µg/mL)
[15] = read-out: Posaconazole MIC (µg/mL)
[16] = read-out: Itraconazole MIC (µg/mL)

`Nc1[nH]c(=O)ncc1F` [5-FC, 5-flucytosine] showed an MIC ([1]; read-out: 5-FC MIC (µg/mL)) of 0.5 µg/mL (≈ 3.87 µM), an MIC ([2]; read-out: 5-FC MIC (µg/mL)) of 0.03 µg/mL (≈ 0.232 µM) and an MIC ([3]; read-out: 5-FC MIC (µg/mL)) of 0.12 µg/mL (≈ 0.93 µM). For the same compound, the MIC ([4]; read-out: 5-FC MIC (µg/mL)) was 0.03 µg/mL (≈ 0.232 µM), the MIC ([5]; read-out: 5-FC MIC (µg/mL)) was 0.03 µg/mL (≈ 0.232 µM) and the MIC ([6]; read-out: 5-FC MIC (µg/mL)) was 0.03 µg/mL (≈ 0.232 µM). For the same compound, the MIC ([7]; read-out: 5-FC MIC (µg/mL)) was greater than 64 µg/mL, the MIC ([8]; read-out: 5-FC MIC (µg/mL)) was 8 µg/mL (≈ 62 µM) and the MIC ([9]; read-out: 5-FC MIC (µg/mL)) was 0.03 µg/mL (≈ 0.232 µM). It also gave an MIC ([10]; read-out: 5-FC MIC (µg/mL)) of 0.03 µg/mL (≈ 0.232 µM), an MIC ([11]; read-out: 5-FC MIC (µg/mL)) greater than 64 µg/mL and an MIC ([12]; read-out: 5-FC MIC (µg/mL)) of 0.06 µg/mL (≈ 0.465 µM).
Work on `C[C@@H](c1ncncc1F)[C@](O)(Cn1cncn1)c1ccc(F)cc1F` [Voriconazole, voriconazole] yielded an MIC [1, 13] of 0.015 µg/mL (≈ 0.0429 µM), an MIC [2, 13] greater than 8 µg/mL and an MIC [3, 13] of 0.25 µg/mL (≈ 0.716 µM). The MIC [4, 13] was greater than 8 µg/mL, the MIC [5, 13] was 0.06 µg/mL (≈ 0.172 µM) and the MIC [6, 13] was 0.03 µg/mL (≈ 0.0859 µM). For the same compound, the MIC [7, 13] was 0.015 µg/mL (≈ 0.0429 µM), the MIC [8, 13] was 0.004 µg/mL (≈ 0.0115 µM) and the MIC [9, 13] was 0.5 µg/mL (≈ 1.43 µM). The MIC [10, 13] was greater than 8 µg/mL, the MIC [11, 13] was 0.004 µg/mL (≈ 0.0115 µM) and the MIC [12, 13] was 0.015 µg/mL (≈ 0.0429 µM).
In the case of `OC(Cn1cncn1)(Cn1cncn1)c1ccc(F)cc1F` [Fluconazole, fluconazole], the MIC [1, 14] is reported as 1 µg/mL (≈ 3.27 µM), the MIC [2, 14] is reported as greater than 256 µg/mL and the MIC [3, 14] is reported as 2 µg/mL (≈ 6.53 µM). It also gave an MIC [4, 14] of 256 µg/mL (≈ 836 µM), an MIC [5, 14] of 4 µg/mL (≈ 13.1 µM) and an MIC [6, 14] of 64 µg/mL (≈ 209 µM). It also gave an MIC [7, 14] of 0.5 µg/mL (≈ 1.63 µM), an MIC [8, 14] of 0.06 µg/mL (≈ 0.196 µM) and an MIC [9, 14] of 8 µg/mL (≈ 26.1 µM). It also gave an MIC [10, 14] of 256 µg/mL (≈ 836 µM), an MIC [11, 14] of 0.5 µg/mL (≈ 1.63 µM) and an MIC [12, 14] of 0.5 µg/mL (≈ 1.63 µM).
With `CC[C@@H]([C@H](C)O)n1ncn(-c2ccc(N3CCN(c4ccc(OC[C@@H]5CO[C@@](Cn6cncn6)(c6ccc(F)cc6F)C5)cc4)CC3)cc2)c1=O` [Posaconazole, posaconazole] the MIC [1, 15] was 0.06 µg/mL (≈ 0.0856 µM), the MIC [2, 15] was greater than 8 µg/mL and the MIC [3, 15] was greater than 8 µg/mL. For the same compound, the MIC [4, 15] was 1 µg/mL (≈ 1.43 µM), the MIC [5, 15] was 0.12 µg/mL (≈ 0.171 µM) and the MIC [6, 15] was 0.03 µg/mL (≈ 0.0428 µM). The MIC [7, 15] was 0.06 µg/mL (≈ 0.0856 µM), the MIC [8, 15] was 0.015 µg/mL (≈ 0.0214 µM) and the MIC [9, 15] was 0.25 µg/mL (≈ 0.357 µM). For the same compound, the MIC [10, 15] was 1 µg/mL (≈ 1.43 µM), the MIC [11, 15] was 0.03 µg/mL (≈ 0.0428 µM) and the MIC [12, 15] was 0.015 µg/mL (≈ 0.0214 µM).
`CCC(C)n1ncn(-c2ccc(N3CCN(c4ccc(OC[C@H]5CO[C@](Cn6cncn6)(c6ccc(Cl)cc6Cl)O5)cc4)CC3)cc2)c1=O` (mixture of isomers) [Itraconazole, itraconazole] gave an MIC [1, 16] of 0.06 µg/mL, an MIC [2, 16] greater than 16 µg/mL and an MIC [3, 16] greater than 16 µg/mL. The MIC [4, 16] was 0.5 µg/mL, the MIC [5, 16] was 0.12 µg/mL and the MIC [6, 16] was greater than 16 µg/mL. For the same compound, the MIC [7, 16] was 0.12 µg/mL, the MIC [8, 16] was 0.03 µg/mL and the MIC [9, 16] was 0.12 µg/mL. The MIC [10, 16] was 1 µg/mL, the MIC [11, 16] was 0.06 µg/mL and the MIC [12, 16] was 0.06 µg/mL.
